Test: treatment of diffuse plaque by carbon dioxide injection into affected corpus tissues
Format: in vivo, patient
Conditions: injection directly into affected corpus tissues
Text: In addition to the above treatment method embodiments, Applicants have discovered that injection(s) of carbon dioxide is/are also effective to treat a condition related to Peyronie's disease known as “diffuse plaque” comprising plaque that has not assimilated into any hardened singular construct within the penis, but remains in a “diffuse” state throughout. The preferred treatment method is injection(s) of carbon dioxide directly into the affected corpus tissues to treat the diffuse plaque. This form of carbon dioxide injection treatment may be continued until the diffuse plaque has been sufficiently mitigated or eliminated. Preferably, if more than one carbon dioxide injection is required, then the second injection location is optimally spaced away from the location of the first carbon dioxide injection. As above, the “dose” of each carbon dioxide injection(s) is considered to be “therapeutically effective” which is defined as described above in conjunction with “carboxy therapy”.
FIG. 10 illustrates one method 900 for treating diffuse plaque using the above-described method steps. Thus, the “diffuse plaque” condition is identified or diagnosed within at least one corpus cavernosa at 902. […] After the initial round of administration/injection(s) of carbon dioxide is complete, the results may be assessed to see if the plaque is mitigated at 908. […]

## O=C=O [carbon dioxide]
  effectiveness in treating diffuse plaque: effective

Source: patent US11602540B2, “Method for stimulating blood flow in a penile region of a patient” (BMR MEDICAL LLC, priority 2016, dated 2023)
